Results from ChEMBL document CHEMBL2311364, “Novel peptidomimetics as BACE-1 inhibitors: synthesis, molecular modeling, and biological studies” (Bioorg Med Chem Lett, 2013).
Active and inactive are the calls of the source. No cut-off for these calls is given here.

Legend:
Beta-secretase 1 [1] = biological target: T1, Beta-secretase 1 (Homo sapiens, UniProt P56817); test: Inhibition of BACE1 in HEK293 cells expressing modified BACE cleavage sequence of APP, NFEV and K612V mutation; assay type: cell-based
Beta-secretase 1 [2] = biological target: T1, Beta-secretase 1; test: Inhibition of BACE1 in human SHSY5Y cells expressing APP NFEV and wild-type alpha-cleavage site; assay type: cell-based, SH-SY5Y
Beta-secretase 1 [3] = biological target: T1, Beta-secretase 1; test: Inhibition of human recombinant BACE-1 using acetyl-C(W8044-Eu)-EVNLDAEFK-QSY7 as substrate by TR-FRET assay
Beta-secretase 1 [4] = biological target: T1, Beta-secretase 1; test: Inhibition of human recombinant BACE-1 using acetyl-C(W8044-Eu)-EVNLDAEFK-QSY7 as substrate at 100 uM by TR-FRET assay

T1 sequence (P56817 whole entry): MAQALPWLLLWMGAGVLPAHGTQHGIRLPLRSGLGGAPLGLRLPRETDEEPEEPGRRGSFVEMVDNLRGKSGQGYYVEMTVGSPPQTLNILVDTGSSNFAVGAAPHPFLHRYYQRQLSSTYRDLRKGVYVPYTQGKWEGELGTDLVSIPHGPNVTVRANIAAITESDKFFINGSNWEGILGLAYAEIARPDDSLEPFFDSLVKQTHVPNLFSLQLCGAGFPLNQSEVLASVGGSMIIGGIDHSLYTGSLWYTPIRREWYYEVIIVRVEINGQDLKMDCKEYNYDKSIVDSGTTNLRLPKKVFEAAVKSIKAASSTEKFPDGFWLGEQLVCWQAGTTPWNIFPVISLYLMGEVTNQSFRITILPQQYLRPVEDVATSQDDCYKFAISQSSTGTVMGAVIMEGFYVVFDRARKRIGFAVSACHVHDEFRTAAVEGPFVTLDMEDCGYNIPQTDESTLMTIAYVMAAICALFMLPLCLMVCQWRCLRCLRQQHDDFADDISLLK

Row | Compound | IC50 (Beta-secretase 1 [1]) | IC50 (Beta-secretase 1 [2]) | IC50 (Beta-secretase 1 [3]) | inhibition (Beta-secretase 1 [4])
1 | O=C1Nc2cc(C(CO)NCc3ccccc3)ccc2C(c2ccccc2)=N[C@H]1c1ccccc1 (stereo partly drawn) | > 22000 nM | > 11000 nM | – | –
2 | CC(C)(C)OC(=O)N1CCN(CC(O)c2ccc(C(=O)c3ccccc3)c(NC(=O)[C@H](NC(=O)OCc3ccccc3)c3ccccc3)c2)CC1 (stereo partly drawn) | – | – | 4.9 µM | –
3 | O=C(N[C@H](C(=O)Nc1cc(C(O)CNCc2ccccc2)ccc1C(=O)c1ccccc1)c1ccccc1)OCc1ccccc1 (stereo partly drawn) | > 2600 nM | > 1200 nM | 2.4 µM | –
4 | O=C(N[C@H](C(=O)Nc1cc(C(CO)NCc2ccccc2)ccc1C(=O)c1ccccc1)c1ccccc1)OCc1ccccc1 (stereo partly drawn) | > 2600 nM | > 1200 nM | 4.1 µM | –
5 | O=C(N[C@@H](C(=O)Nc1cc(C(CO)NCc2ccccc2)ccc1C(=O)c1ccccc1)c1ccccc1)OCc1ccccc1 (stereo partly drawn) | – | – | 4.2 µM | –
6 | CC(C)(C)OC(=O)N1CCN(c2cccc3c2NC(=O)[C@H](Cc2ccccc2)N=C3c2ccccc2)CC1 | – | – | – | inactive
7 | CC(C)(C)OC(=O)N1CCN(c2cccc3c2NC(=O)[C@@H](c2ccccc2)N=C3c2ccccc2)CC1 | – | – | 43 µM | –
8 | CC(C)(C)OC(=O)N1CCN(c2cccc(C(=O)c3ccccc3)c2NC(=O)[C@@H](NC(=O)OCc2ccccc2)c2ccccc2)CC1 | – | – | – | inactive
9 | CC(C)(C)OC(=O)N1CCN(CC(O)c2ccc3c(c2)NC(=O)[C@@H](c2ccccc2)N=C3c2ccccc2)CC1 (stereo partly drawn) | – | – | – | inactive
10 | CC(C)(C)OC(=O)N1CCN(c2cccc3c2NC(=O)[C@H](CCc2ccccc2)N=C3c2ccccc2)CC1 | – | – | – | inactive
11 | O=C(N[C@@H](C(=O)Nc1cc(C(O)CNCc2ccccc2)ccc1C(=O)c1ccccc1)c1ccccc1)OCc1ccccc1 (stereo partly drawn) | > 2600 nM | > 1200 nM | 2.6 µM | –
12 | O=C1Nc2cc(C(O)CNCc3ccccc3)ccc2C(c2ccccc2)=N[C@@H]1c1ccccc1 (stereo partly drawn) | – | – | – | inactive
13 | O=C1Nc2ccccc2C(c2ccccc2)=N[C@H]1C(O)CN1CCNCC1 (stereo partly drawn) | – | – | 12.5 µM | –
14 | O=C1Nc2c(cccc2N2CCNCC2)C(c2ccccc2)=N[C@H]1c1ccccc1 | – | – | – | inactive
15 | O=C1Nc2cc(C(CO)NCc3ccccc3)ccc2C(c2ccccc2)=N[C@@H]1c1ccccc1 (stereo partly drawn) | – | – | 10.9 µM | –
16 | CC(C)(C)OC(=O)N1CCN(c2cccc3c2NC(=O)[C@H](c2ccccc2)N=C3c2ccccc2)CC1 | – | – | 35 µM | –
